One assay concerns the target T1, AnKir1 (Anopheles gambiae, UniProt A0A075M2J8).
T1 sequence (A0A075M2J8 1-555): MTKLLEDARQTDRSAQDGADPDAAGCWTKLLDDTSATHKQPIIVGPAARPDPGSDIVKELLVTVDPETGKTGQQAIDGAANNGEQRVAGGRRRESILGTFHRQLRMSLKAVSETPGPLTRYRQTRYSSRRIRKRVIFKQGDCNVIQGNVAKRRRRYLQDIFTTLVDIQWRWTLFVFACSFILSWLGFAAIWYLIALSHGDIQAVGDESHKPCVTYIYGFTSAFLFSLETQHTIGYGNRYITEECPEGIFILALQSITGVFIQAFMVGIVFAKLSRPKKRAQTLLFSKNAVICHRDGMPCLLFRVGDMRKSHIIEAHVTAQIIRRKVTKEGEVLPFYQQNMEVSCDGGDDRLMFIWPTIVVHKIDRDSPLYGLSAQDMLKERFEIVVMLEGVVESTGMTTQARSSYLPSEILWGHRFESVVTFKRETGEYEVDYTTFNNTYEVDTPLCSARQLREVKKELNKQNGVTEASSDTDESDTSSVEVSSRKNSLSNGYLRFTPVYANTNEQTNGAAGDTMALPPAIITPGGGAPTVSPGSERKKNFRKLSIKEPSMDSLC
Briefly: Whole-cell patch clamp of AnKir1 in HEK-293T cells. Format: cell-based. Particulars: for IC50: currents at -120 mV. The text has this: Transiently transfected HEK-293T cells expressing AnKir1 cells were voltage clamped in the whole-cell configuration of the patch clamp technique, as described previously. The extracellular bath solution contained (in mM): 135 NaCl, 5 KCl, 2 CaCl2, 1 MgCl2, 5 glucose, 10 HEPES free acid, pH 7.4, 290 mOsm/kg H2O. The pipette solution contained (in mM): 135 KCl, 2 MgCl2, 1 EGTA, 10 HEPES free acid, 2 Na2ATP (Roche, Indianapolis, IN), pH 7.3, 275 mOsm. Cells were voltage clamped at −75 mV, stepped to −120 mV for 200 msec, and then ramped to 120 mV at a rate of 2.4 mV/msec. Concentration-response curves (CRCs) were constructed by measuring the effects of increasing doses of inhibitors on AnKir1 currents at −120 mV. All recordings were made at room temperature (20–23 °C).
Patch clamp electrophysiology
Patch electrodes were pulled from silanized 1.5 mm outer diameter borosilicate microhematocrit tubes using a P-1000 Flaming/Brown micropipette puller (Sutter Instrument, Novato CA, USA). Electrode resistance ranged from 2 -4 MΩ. Whole-cell currents were recorded under voltage-clamp conditions using an Axopatch 200B amplifier (Molecular D evices, Sunn yvale, CA). Electri cal conn ections to the amplifier were made using Ag/AgCl wires and 3 M KCl/agar bridges. El ectroph ysiologi cal data were collected at 5 kHz and filtered at 1 kHz.
Data acquisition and anal ys is were performed using pClamp 9.2 software (Axon Instruments). […]
On the technique in general: In patch-clamp work, channel activity is measured electrically.

The test system of the next assay is An. gambiae. The assay can be described thus: Blood meal processing (abdominal diameter) in An. gambiae. Conditions: topical 1 μg/mg (ED30 dose of VU041) immediately after engorgement, over 24 h. The class given is in vivo, Anopheles gambiae. The protocol: Blood meal processing studies were performed with similar methods as described above, with the exception that An. gambiae were blood fed on anesthetized mice. All methods were carried out in accordance with Vanderbilt Institutional Animal Care and Use Committee approval (protocol M/13/164 to Dr. Julian Hillyer, Department of Biology, Vanderbilt University). Upon completion of blood feeding, female mosquitoes with a fully distended abdomen were selected and 200 nL of chemical at a non-lethal concentration (1 μg/mg) was applied directly to the abdomen. Any mosquito that died during the 24 h observation period was excluded from the analysis. Images of the abdomens were acquired at 0, 2, 5, 8, and 24 h through the dorsal cuticle and were measured at the widest point of the abdomen. These images were captured using bright-field illumination on a Nikon 90i light microscope (Nikon Corp., Tokyo, Japan) connected to a Photometrics CoolSNAP HQ2 high-sensitivity monochrome CCD camera (Roper Scientific, Ottobrunn, Germany). Digital images were acquired using Nikon Advanced Research NIS-Elements software. Mean abdominal diameters were compared using a one-way ANOVA with a Tukey’s post-hoc analysis (Prism 6, Graphpad Software, La Jolla, CA).

The next assay relates to An. gambiae Akron strain. The assay can be described thus: Topical toxicity bioassay, An. gambiae Akron strain adult females. Conditions: 24 h, adult female An. gambiae, (95% confidence limits), synergist PBO applied 4 h prior where labelled. Format: in vivo. The protocol: Topical toxicity bioassays were performed based on the method of Pridgeon et al.[50]. Briefly, non-blood fed adult female mosquitoes were chilled on ice for 1–3 minutes, during which 200 nL of chemical (dissolved in 95% ethanol) was applied onto the abdomen of the insect using a handheld Hamilton® micro-applicator. For synergism studies, 500 ng of the synergist (i.e., piperonyl butoxide [PBO] or S,S,S-tributyl phosphorotrithioate [DEF]) per milligram of mosquito (ng/mg) was applied to the abdomen 4 h prior to application of the insecticide. […] The three ED50 values obtained were then averaged and presented as a mean. An ethanol-only treatment was included in each experiment as a negative control. Treated mosquitoes were transferred to small cages with access to 10% sucrose and held under rearing conditions for 24 h. Mortality was recorded at 24 h.

A further assay concerns Ae. aegypti. Briefly: Topical toxicity bioassay, Ae. aegypti (LVP and PR strains) adult females. The class given is in vivo, Aedes aegypti. Particulars: LVP strain. As for the experimental part: Topical toxicity bioassays in adult female Ae. aegypti (LVP and PR strains) were performed as described previously. […] A solvent-only treatment was included in each experiment as a negative control. Treated mosquitoes were transferred to small cages with access to 10% sucrose and held under rearing conditions for 24 h. The efficacy of a dose was measured as the percentage of treated mosquitoes in a cage that were flightless or dead at 24 h. Four to eight replicates of 10 mosquitoes were performed per dose. The ED50 values were determined using a non-linear curve fit analysis (log [inhibitor] vs. response variable-slope) in Prism 6 (Graphpad Software).
Six replicate experiments of 10 mosquitoes were performed.

As usually defined, the IC50 is the concentration at which inhibition is half-maximal. Regarding `O=C(Cn1nc(C(F)(F)F)c2c1CCCC2)N1CCCc2ccccc21` [VU041, 1-(3,4-dihydroquinolin-1(2H)-yl)-2-(3-(trifluoromethyl)-4,5,6,7-tetrahydro-1H-indazol-1-yl)ethan-1-one], on AnKir1, the “Hill coefficient (patch clamp, AnKir1)” value came to 1.3 and it took 0.496 µM to reach half-maximal inhibition (IC50). Also, the “time-course and reversibility of AnKir1 inhibition” value on AnKir1 (10 μM, wash-out with control saline) is “rapid and partially reversible”. Further, the “change of abdominal diameter after blood meal” value in the assay with An. gambiae was “did not change over the following 24 h period”. Also, in the assay on An. gambiae Akron strain, the “ED50, Akron Strain” value is given as 2.8 (2.1–4.1) A μg/mg. Also, in the assay with Ae. aegypti (topical, 24 h, flightless or dead), the ED50 came to 3.24 μg/mg mosquito.

`O=C(Cn1ncc2c1CCOC2)N1CCCc2ccccc21` [VU730] registered a concentration for half-maximal inhibition (IC50) on AnKir1 of 0.717 µM.

For `O=C(Cn1nc(C(F)(F)F)c2c1CCCC2)NC1CCC1` [VU937], on AnKir1, the half-inhibitory concentration (IC50) amounted to 29.7 µM. In addition, the “AnKir1 inhibition relative to VU041 (fold less)” value at AnKir1 (patch clamp) stood at 60 fold. Moreover, the “change of abdominal diameter after blood meal” value in the assay with An. gambiae is listed as “decreased significantly over 24 h”. Besides, the “ED50, Akron Strain” value in the assay with An. gambiae Akron strain was over 10 µg/mg. In addition, the topical toxicity result with Ae. aegypti (dose near ED50 of VU041, 24 h) is “not toxic”.

(Values after publication PMC5111108, “An insecticide resistance-breaking mosquitocide targeting inward rectifier potassium channels in vectors of Zika virus and malaria” (Scientific Reports, 2016).)
